Measurements taken from PMC5913645, “Methyl phenlactonoates are efficient strigolactone analogs with simple structure” (Journal of Experimental Botany, 2017).

Target: T1, ShHTL7 (Striga hermonthica, UniProt A0A0M3PNA2)
T1 sequence (A0A0M3PNA2 1-271): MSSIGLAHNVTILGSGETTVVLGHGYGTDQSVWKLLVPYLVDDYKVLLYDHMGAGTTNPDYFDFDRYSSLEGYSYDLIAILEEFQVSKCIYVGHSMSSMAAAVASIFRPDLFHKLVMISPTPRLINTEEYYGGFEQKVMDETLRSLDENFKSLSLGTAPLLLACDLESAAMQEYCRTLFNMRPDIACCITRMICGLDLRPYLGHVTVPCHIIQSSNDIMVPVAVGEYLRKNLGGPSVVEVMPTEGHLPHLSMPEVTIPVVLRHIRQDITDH
Assay: In vitro hydrolysis assay, ShHTL7
Type: biochemical
Conditions: 10 µM substrate, 50 µg ml^−1 protein, 37 °C, HPLC
Description: Striga hermonthica ShHTL7 cDNA was used, GenBank accession KR013127, kindly provided by Tsuyoshi Ota, The University of Tokyo, Japan. Arabidopsis D14 (AtD14) cDNA, GenBank accession AY097402, was synthesized and cloned into pUC57 (GenScript). ShHTL7 and OsD14 cDNAs were amplified by RT-PCR using the primers shown in Supplementary Table S2, digested with BamHI and XhoI, and ligated into BamHI/XhoI-digested pGEX-6P-1 expression vector (GE Healthcare). […] The plasmids were then transformed into E. coli BL21 (DE3) cells. The cells were grown in LB broth containing ampicillin ([…]), incubated at 37 °C until OD600 of 0.6 and induced with 0.1 mM isopropyl-β-D-thiogalactopyranoside at 16 °C for 16 h. Harvested cells were resuspended in lysis buffer: 50 mM Tris–HCl (pH 8.0), 200 mM NaCl, 0.5% Tween-20 and 2 mM dithiothreitol (DTT). After sonication on ice for 10 min, the lysate was centrifuged at 75 000 g for 30 min at 4 °C. Supernatant was allowed to bind to glutathione–sepharose beads (GE Healthcare) for 2 h at 4 °C, washed 3 times with buffer (50 mM Tris-HCl (pH 8.0), 200 mM NaCl, 2 mM DTT), and eluted by cleaving the GST moiety with PreScission™ Protease (GE Healthcare) at 4 °C overnight. Eluted protein was further purified by gel filtration using a HiLoad 16/60 Superdex200 prep grade column (GE Healthcare) on an AKTA prime system (GE Healthcare) in gel filtration buffer (10 mM HEPES pH 7.5, 50 mM KCl and 2 mM DTT). […] Purified protein was concentrated using an Amicon 10K filter unit (Merck Millipore) and stored at −80 °C until use. A similar expression and purification protocol was followed for OsD14 protein, except that OsD14 was eluted from glutathione resins using 0.2 mM reduced glutathione (Sigma-Aldrich) without cutting the GST tag.
The hydrolysis of GR24 and MPs by ShHTL7/OsD14 was performed in a total volume of 0.5 ml of phosphate-buffered saline containing 10 µM of substrate. Purified ShHTL7/OsD14 was added at a concentration of 50 µg ml^−1 and incubated for the indicated time at 37 °C. After adding 1-indanol (10 µl of a 2.5 mg ml^−1 solution in methanol), as internal standard, solutions were filtered and transferred to HPLC vials. […] The column was operated at 30 °C with a flow rate of 0.2 ml min^−1. Eluted compounds were detected using a diode array detector. Amounts of remaining substrates were determined by calculating corresponding peaks, in comparison with an internal standard.

| Structure (SMILES) | hydrolysis rate by ShHTL7 (rank order) |
| --- | --- |
| COC(=O)/C(=C/OC1C=C(C)C(=O)O1)c1ccccc1 (stereo not shown) [MP3, (E)-methyl 3-(4-methyl-5-oxo-2,5-dihydrofuran-2-yloxy)-2-phenylacrylate] | highest hydrolysis rates with MP1, followed by MP7, GR24, and finally MP3 |
| CC1=CC(OC=C2C(=O)OC3c4ccccc4CC23)OC1=O (stereo not shown) [GR24, reference compound] | highest hydrolysis rates with MP1, followed by MP7, GR24, and finally MP3 |
| COC(=O)/C(=C/OC1C=C(C)C(=O)O1)c1ccc([N+](=O)[O-])cc1 (stereo not shown) [MP1, (E)-methyl 3-(4-methyl-5-oxo-2,5-dihydrofuran-2-yloxy)-2-(4-nitrophenyl)acrylate] | highest hydrolysis rates with MP1, followed by MP7, GR24, and finally MP3 |
| COC(=O)/C(=C/OC1C=C(C)C(=O)O1)c1ccc(Cl)cc1 (stereo not shown) [MP7] | highest hydrolysis rates with MP1, followed by MP7, GR24, and finally MP3 |
